Results: paper PMC7685627, “In vitro investigation of metabolic fate of α-mangostin and gartanin via skin permeation by LC-MS/MS and in silico evaluation of the metabolites by ADMET predictor™” (BMC Complementary Medicine and Therapies, 2020)
Entries after “also recorded” stand apart in the source; their conditions may differ.

What was measured:
[1] = test system: HEKn cells; experiment: Metabolites during permeation across HEKn cell monolayer by LC-MS/MS; type: in vitro ADME, human; conditions: positive scan mode
Procedure: Human epidermal keratinocyte (neonatal) (HEKn) (InvitrogenTM, Cat# C-001-5C Lot#1654391, Oregon, USA) cells were grown in T-25 flask at 37 °C in an atmosphere of 5% CO2. The adherent keratinocytes were cultured in low calcium (0.09 mM), serum-free, Epilife® medium, and supplement with Human Keratinocyte Growth Supplement (HKGS) at 1% v/v concentration. When a 500 ml of Epilife® medium was supplemented with HKGS the final concentration of the components in the supplement medium were: bovine pituitary extract (BPE) 0.2% v/v, bovine insulin 5 μg/ml, hydrocortisone 0.18 μg/ml, bovine transferrin 5 μg/ml and human epidermal growth factor 0.2 ng/ml. The medium was replaced regularly three times a week until the flask reaches 90% confluence (Fig. 2). The cells were moved from the flasks by incubating the monolayers with 0.5% trypsin for 2–3 min at 37 °C. The cells were collected into centrifuge tubes, and then centrifuged at 1000 rpm for 4 min and the pellets were resuspended in Epilife® medium. Cells used for this study were in third and fourth passage in late sub confluency.
HEKns cells were seeded at a density of 1 × 10^5 cells/cm^2 on permeable supports (Transwell® Costar, 0.4 μm pore size) as shown in Fig. 3. […] The integrity of the HEKns cell monolayer in the transwell plates was determined by measuring Trans Epithelial Electrical Resistance (TEER). […]

[2] = test system: HEKn cells; design: method as in PMID 32615127; conditions: gartanin 9 μM, compound alone; previous experiments ref 16; cited from earlier work
[3] = test system: HEKn cells; experiment: Papp, A-B from the previous permeation experiments; type: in vitro ADME, human; conditions: experimental Papp, A-B versus S+MDCK predicted Papp; previous experiments ref 16
[4] = test system: CYP1A2; design: method as in Foti et al. [20]; conditions: ref Foti et al. [20]; cited from earlier work
[5] = test system: CYP2C family of enzymes; design: method as in Foti et al. [20]; conditions: ref Foti et al. [20]; cited from earlier work

Structure (SMILES)	Metabolism identified by LC-MS/MS [1]	Papp, A-B [2]	Papp, A-B from experiments lower than predicted Papp [3] [fold]	Metabolizing CYP isoform [4]	Inhibition of CYP [5]
CC(C)=CCc1c(O)c(CC=C(C)C)c2oc3c(O)ccc(O)c3c(=O)c2c1O [Gartanin]	might be conjugated to sulfated derivatives; also recorded: not found to be metabolized in phase I metabolism	could not be detected	–	–	–
COc1c(O)cc2oc3cc(O)c(CC=C(C)C)c(O)c3c(=O)c2c1CC=C(C)C [α-mangostin]	might be metabolized via tri-oxidation process	–	3	metabolized primarily by CYP1A2	potent inhibited
